Source: BindingDB's records for doi:10.1021/acs.jmedchem.6b01303 (Astrazeneca, 2016)

Test: Inhibition of SMYD2 (unknown origin) expressed in human U2OS cells assessed as reduction in cell count incubated for 24 hrs by DAPI staining based assay

IC50 [µM] | SMILES
5 | N#Cc1cc(C(=O)NCCCN2CCCC2)cc(-c2ccccc2N2CCN(CCc3ccc(Cl)c(Cl)c3)CC2)c1
13.3 | O=C(NCCCN1CCCC1)c1cncc(-c2ccccc2N2CCN(CCc3c[nH]c4ccccc34)CC2)c1
